In PMC11583123, “Linker Chemistry and Connectivity Fine-Tune the Immune Response and Kinetic Solubility of Conjugated NOD2/TLR7 Agonists” (Bioconjugate Chemistry, 2024):

Columns and labels:
human TLR7 = target: T1, human TLR7 (Homo sapiens, UniProt Q9NYK1); experiment: HEK-Blue TLR7 NF-κB SEAP reporter assay; format: cell-based; conditions: HEK-Blue TLR7 cells
T1 construct: host or cells: HEK-Blue TLR7 (HEK293-derived)
T1 sequence (Q9NYK1 27-1049): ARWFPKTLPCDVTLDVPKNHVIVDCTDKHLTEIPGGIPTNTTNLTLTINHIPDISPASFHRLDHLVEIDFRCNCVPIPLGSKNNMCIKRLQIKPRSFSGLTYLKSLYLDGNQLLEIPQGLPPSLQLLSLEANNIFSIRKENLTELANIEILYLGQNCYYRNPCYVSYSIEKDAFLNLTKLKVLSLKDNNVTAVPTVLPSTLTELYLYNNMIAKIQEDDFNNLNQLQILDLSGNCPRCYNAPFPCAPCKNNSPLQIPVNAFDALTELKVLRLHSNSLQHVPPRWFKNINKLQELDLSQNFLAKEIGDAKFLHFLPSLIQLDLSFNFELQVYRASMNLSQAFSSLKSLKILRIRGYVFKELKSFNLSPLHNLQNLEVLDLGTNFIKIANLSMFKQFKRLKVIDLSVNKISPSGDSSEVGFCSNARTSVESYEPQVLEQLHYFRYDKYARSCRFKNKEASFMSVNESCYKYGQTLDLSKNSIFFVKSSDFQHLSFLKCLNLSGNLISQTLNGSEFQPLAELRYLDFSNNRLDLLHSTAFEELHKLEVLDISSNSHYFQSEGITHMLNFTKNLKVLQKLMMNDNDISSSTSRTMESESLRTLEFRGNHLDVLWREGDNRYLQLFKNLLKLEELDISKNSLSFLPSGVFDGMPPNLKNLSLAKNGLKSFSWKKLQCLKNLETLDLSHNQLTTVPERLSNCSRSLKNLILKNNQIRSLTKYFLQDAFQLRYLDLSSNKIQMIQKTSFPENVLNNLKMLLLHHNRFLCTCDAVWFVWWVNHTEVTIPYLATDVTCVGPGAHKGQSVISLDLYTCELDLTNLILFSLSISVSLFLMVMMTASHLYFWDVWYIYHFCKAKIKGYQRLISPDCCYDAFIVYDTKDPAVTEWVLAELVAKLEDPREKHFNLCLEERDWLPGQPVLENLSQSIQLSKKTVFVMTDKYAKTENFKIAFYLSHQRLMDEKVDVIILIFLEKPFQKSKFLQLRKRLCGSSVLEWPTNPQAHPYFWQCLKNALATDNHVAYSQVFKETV
From the text: (§1) The building blocks and synthesized conjugates were initially assessed for their receptor-specific activities toward NOD2, TLR7 and TLR8 using the commercially available HEK-Blue NOD2, TLR7 and TLR8 reporter cell lines. These cell lines were derived from HEK293 cells by cotransfection of human NOD2/TLR7/TLR8 and an NF-κB-inducible secreted embryonic alkaline phosphatase (SEAP). Activation of NOD2/TLR7/TLR8, and subsequently of NF-κB, leads to the expression and secretion of SEAP, the levels of which can be quantified colorimetrically. […]
(§2) 3.1. Hek-Blue NOD2, TLR7 and TLR8 cells.
(§3) HEK-Blue NOD2, TLR7, and TLR8 cells (Invivogen, San Diego, CA, USA) were cultured according to the manufacturer instructions in Dulbecco’s modified Eagle’s medium (Sigma-Aldrich, St. Louis, MO, USA) supplemented with 10% heat-inactivated fetal bovine serum (Gibco), 2 mM L-glutamine (Sigma-Aldrich), 100 U/mL penicillin (Sigma-Aldrich), 100 µg/mL streptomycin (Sigma-Aldrich), and 100 µg/mL Normocin (Invivogen) for two passages. All subsequent passages of NOD2 and TLR8 cells were cultured in medium additionally supplemented with 100 µg/mL Zeocin and 30 µg/mL Blasticidin (Invivogen) and of TLR7 cells with 100 µg/mL Zeocin and 10 µg/mL Blasticidin. […]
(§4) The tested compounds were dissolved in DMSO and further diluted in culture medium to the desired final concentrations, such that the final DMSO concentration never exceeded 0.1%. […]
(§5) 3.4 NOD2/TLR7/TLR8 NF-kB reporter assay
(§6) HEK-Blue NOD2 cells (25,000 cells/well), TLR7 and TLR8 cells (40,000 cells/well) were seeded in 96-well plates in 100 µL HEK-Blue detection medium (Invivogen, San Diego, CA, USA) and treated with […]
(§7) corresponding vehicle (0.1% DMSO). After 18 h of incubation (37 °C, 5% CO2), secreted embryonic

human NOD2 = target: T2, human NOD2 (Homo sapiens, UniProt Q9HC29); experiment: HEK-Blue NOD2 NF-κB SEAP reporter assay; format: cell-based; conditions: HEK-Blue NOD2 cells
T2 construct: host or cells: HEK-Blue NOD2 (HEK293-derived)
From the text: as §1, §2, §3, §4, §5, §6, §7

[1] = Kinetic solubility in PBS (UHPLC, method of Hoelke et al.); format: physicochemical; conditions: PBS, 5% DMSO
Protocol: Second, the kinetic solubility of all individual building blocks (compounds 4-7) and conjugates was determined (results are listed in Table 1) in order to highlight how fine-tuning of linker traits can impact this physicochemical property. Kinetic solubility refers to the maximum solubility of a compound when it precipitates from a supersaturated solution, which is metastable and not in equilibrium; it was measured using the method described by Hoelke et al.[34] The length and composition of the linker as well as linkage site are important for activity and physicochemical characteristics of conjugates, which in turn affect their pharmacokinetic profiles. In general, the benzylic COOH was exploited exclusively as the linker attachment site in TLR7 agonist-featuring conjugates, while two potential linkage sites were considered in the structure of NOD2 agonist. […] In conjugates 22-24 and 29, the moieties were connected via the γ-COOH group of the NOD2 agonist. […] It has to be kept in mind that among the polyalkylethers, the structural requirements for aqueous solubility are poised toward the (−OCH2CH2−)n unit while (−OCH2CH2CH2−)n is not beneficial in this respect.[35] […]
suspension was filtered through a syringe filter (0.45 μm), diluted 2.25-fold with acetonitrile, and analyzed with UHPLC. The solubility was quantified with a five-point calibration curve from 500 to 0.8 μM generated by dilution of the original DMSO solution into a 1:1 mixture of acetonitrile and PBS. The content of DMSO in all solutions was fixed to 5% by adding the respective amounts of DMSO. The column used was Waters Acquity UPLC BEH C18 (1.7 μm, 2.1 × 50 mm). The eluent was a mixture of 0.1% TFA in water (A) and acetonitrile (B), with a gradient of (%B): 0−6 min, 5−95%; 6−8 min, 95%; 8−8.5 min, 95−5%. The column was thermostated at 40 °C.
3.1. Hek-Blue NOD2, TLR7 and TLR8 cells. […]
(BioTek Synergy microplate reader; Winooski, VT, USA). EC50 values were calculated using Prism

[2] = 18 h, eight concentrations (1 nM to 10 μM), mean ± SEM
[3] = aqueous with cosolvent or surfactant or cyclodextrin, kinetic from dmso stock

T2 sequence (Q9HC29 whole entry): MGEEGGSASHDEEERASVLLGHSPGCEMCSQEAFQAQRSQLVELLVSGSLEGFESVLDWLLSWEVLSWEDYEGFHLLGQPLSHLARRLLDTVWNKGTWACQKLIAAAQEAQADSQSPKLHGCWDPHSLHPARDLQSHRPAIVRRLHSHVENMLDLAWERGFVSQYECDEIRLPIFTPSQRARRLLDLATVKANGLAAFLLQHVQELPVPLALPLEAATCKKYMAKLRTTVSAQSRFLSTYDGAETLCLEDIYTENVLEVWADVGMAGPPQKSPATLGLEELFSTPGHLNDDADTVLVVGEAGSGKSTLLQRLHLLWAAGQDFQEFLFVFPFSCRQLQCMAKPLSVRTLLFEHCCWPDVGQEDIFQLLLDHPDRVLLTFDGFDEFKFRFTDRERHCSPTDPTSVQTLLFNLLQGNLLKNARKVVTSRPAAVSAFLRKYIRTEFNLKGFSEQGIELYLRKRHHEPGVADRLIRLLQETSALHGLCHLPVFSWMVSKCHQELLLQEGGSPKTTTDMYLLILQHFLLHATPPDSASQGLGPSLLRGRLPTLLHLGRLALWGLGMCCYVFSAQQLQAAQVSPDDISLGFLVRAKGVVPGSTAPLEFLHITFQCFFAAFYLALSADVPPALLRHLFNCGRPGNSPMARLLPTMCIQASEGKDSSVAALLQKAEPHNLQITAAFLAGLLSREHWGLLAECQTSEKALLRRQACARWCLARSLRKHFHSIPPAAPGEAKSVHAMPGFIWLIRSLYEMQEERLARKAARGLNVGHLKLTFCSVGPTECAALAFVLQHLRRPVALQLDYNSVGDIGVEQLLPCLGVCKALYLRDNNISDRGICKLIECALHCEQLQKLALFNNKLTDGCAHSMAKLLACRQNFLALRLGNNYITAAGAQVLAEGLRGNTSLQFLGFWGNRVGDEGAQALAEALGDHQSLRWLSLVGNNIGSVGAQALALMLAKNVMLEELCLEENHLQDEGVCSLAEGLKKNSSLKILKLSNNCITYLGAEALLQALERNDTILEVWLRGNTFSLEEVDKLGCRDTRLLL

| SMILES | EC50 (human TLR7; [2]) | TLR7 agonistic activity (in words) (human TLR7; up to 10 μM) | EC50 (human NOD2) | EC50 (human NOD2; [2]) | solubility kinetic [1] | solubility kinetic [1, 3] | EC50 (human TLR7) |
| --- | --- | --- | --- | --- | --- | --- | --- |
| CCOCc1nc2c(NC(=O)CCCCCNC(=O)CC[C@@H](NC(=O)[C@@H](NC(=O)CNC(=O)/C=C/c3ccc(O)c(OC)c3)C(C)C)C(=O)OCC)nc3ccccc3c2n1CC(C)(C)O [compound 32] | > 10 µM | devoid of TLR7 agonistic activity | 7.2 µM | 7.23 ± 0.499 µM | 437.3 µM | 437 µM | – |
| CCOCc1nc2c(N)nc3ccccc3c2n1CC(C)(C)NC(=O)CCCCCNC(=O)CC[C@@H](NC(=O)[C@@H](NC(=O)CNC(=O)/C=C/c1ccc(O)c(OC)c1)C(C)C)C(=O)OCC [compound 33] | 5.29 ± 1.5 µM | – | – | > 10 µM | 404.1 µM | 404 µM | 5.3 µM |
